# Measured values from patent US5580747A, “Non-radioactive enzyme assay” (Promega Corporation, priority 1994, dated 1996).
# No end group written: not given here.
# Assays:
# [1] = target: T1, Modified Trypsin (Sus scrofa, UniProt P00761); assay: Assay of pure proteases using modified peptides, agarose gel; assay type: biochemical; conditions: 90 minutes at 37° C., 0.1 to 0.001 μg protease
# T1 construct: purchased Promega Corp., Madison, Wis
# Protocol: (§1) The proteases Modified Trypsin [sequencing grade] (Promega Corp., Madison, Wis.) and Endoprotease Lys C [sequencing grade] were dissolved in A buffer (50 mM ammonium bicarbonate, pH 7.8). These stocks were diluted with A buffer to produce stocks containing […] protease per 4 μl of liquid. Independent incubations of 4 μl of each of the different protease concentrations were performed with Promega Peptides 5 (SEQ ID NO:5), 6 (SEQ ID NO:6), 7 (SEQ ID NO:7) (5 μl of the stocks described above) in a 20 μl reaction mixture containing: 5 μl peptide; 4 μl protease; and 11 μl A buffer.
# (§2) After 90 minutes at 37° C., the samples were loaded into a 0.8% agarose gel made in 20 mM Tris, pH 8.0. The samples were electrophoresed at 150 V. When the control peptide sample had migrated about 0.5 inch from the loading well, the gels were photographed on a transilluminator as described above.
# (§3) Reference is made to FIG. 13, which is a photograph of the agarose gel used to analyze the peptide species produced in the digestion of Promega Peptide 6 (SEQ ID NO:6) by modified trypsin and Endoprotease Lys C. The gel was photographed under UV light as described in Example 1 and the gel is oriented such that the end of the gel which was oriented towards the negative electrode is towards the top of the photograph. The lanes are numbered from left to right. […]
# [2] = tested on: protein kinase C; assay: Detection of small amounts of protein kinase C, agarose gel; assay type: biochemical; conditions: 30 minutes at room temperature, UV light
# Protocol: Fifteen microliters of Promega Peptide 5 (SEQ ID NO:5) were incubated in protein kinase C reaction buffer (20 mM HEPES (pH 7.4), 1.3 mM CaCl2, 1 mM DTT, 10 mM MgCl2, 200 μg/mL phosphatidyl serine, 15 mM ATP), and 1 μg Protein Kinase C for 2 hours at room temperature in a final volume of 40 μl. The reaction was stopped by heating the reaction solution to 95° C. for ten minutes.
# Five microliters of Promega Peptide 5 (SEQ ID NO:5) and 6 (SEQ ID NO:6) or 2.5 μl of Promega Peptide 4 (SEQ ID NO:4) were incubated with a solution containing 18 μl protein kinase C reaction buffer (described in Example 13) and decreasing amounts of protein kinase C, containing between 60 ng and 60 picograms (pg), for 30 minutes at room temperature. Reactions were stopped by heating the reaction mixtures to 95° C. for 10 minutes.
# Referring to FIG. 11, the detection of phosphorylated peptide was observed under UV light, and detection limits noted. Six hundred picograms of protein kinase C could be detected by Promega Peptide 4 (SEQ ID NO:4), 3ng by Promega Protein 5 (SEQ ID NO:5), and 3 ng by Promega Protein 6 (SEQ ID NO:6).
# [3] = tested on: alkaline phosphatase; conditions: peptide phosphorylated by protein kinase C; pH 9.2, 37° C. for 45 minutes
# Protocol: Promega Peptide 6 (SEQ ID NO:6) was phosphorylated to provide a substrate for alkaline phosphatase in the following manner: 40 μl Promega Peptide 6 (SEQ ID NO:6) were incubated in a solution containing 20 mM HEPES (pH 7.4), 1.67 mM CaCl2, 1 mM dithiothreotol, 10 mM MgCl2, 100 μg/mL phosphatidylserine, 2 mM ATP, and 50 ng protein kinase C in a final volume of 100 μl at 37° C. for 1.5 hours. The reaction was stopped by incubating the mixture at 95° C. for 10 minutes.
# After phosphorylation, 0.1M Tris (pH 9.5) was added to a final pH of 9.2. Fifteen microliters of this solution were mixed with between 0.08 to 200 pmoles of alkaline phosphatase in a final volume of 20 μl and incubated at 37° C. for 45 minutes. The reaction was stopped by freezing the mixtures in a dry ice/ethanol bath. Glycerol was added to a final concentration of 4%, and the samples were run on a 0.8% agarose gel at 75 V for 20 minutes.
# [4] = tested on: Brevibacterium albidum culture supernate; assay: Assays of proteases in crude media samples; assay type: biochemical; conditions: 90 minutes at 37° C.
# Protocol: (§4) Samples of culture supernate from stationary phase cultures of Thermus aquaticus (T. aquaticus) and Brevibacterium albidum (B. albidum) were made by centrifugation of a stationary phase culture at 12,000×g for 2 minutes and transfer of the supernate to fresh tubes. Diluted stocks of Promega Peptides 3 (SEQ ID NO:3), 5 (SEQ ID NO:5) and 6 (SEQ ID NO:6) were made by dilution of the original stocks of these peptides with an equal volume of 50 mM ammonium bicarbonate, pH 7.8. In three independent tubes per peptide, 10 μL of these diluted stocks were incubated with either 10 μL water, 10 μL Thermus supernate, or 10 μL Brevibacterium supernate. The incubations were performed for 90 minutes at 37° C. The samples were then loaded in a 0.9% agarose gel made with 20 mM Tris-Cl pH 8.0. The gel was then electrophoresed at 120 V for 30 minutes, and was photographed under UV light on a transilluminator as described above.
# (§5) Reference is made to FIG. 15, which is a photograph of the agarose gel used to analyze the peptide species produced in the digestion of Promega Peptides 3 (SEQ ID NO:3), 5 (SEQ ID NO:5), and 6 (SEQ ID NO:6) by supernates of cultures of T. aquaticus and B, albidum. The gel was photographed under UV light as described in Example 1 and the gel is oriented such that the end of the gel which was oriented towards the negative electrode is towards the top of the photograph.
# [5] = tested on: Thermus aquaticus culture supernate; assay: Assays of proteases in crude media samples; assay type: biochemical; conditions: 90 minutes at 37° C.
# Protocol: as §4, §5
# [6] = target: T2, Endoprotease Lys C (Lysobacter enzymogenes, UniProt Q7M135); assay: Assay of pure proteases using modified peptides, agarose gel; assay type: biochemical; conditions: 90 minutes at 37° C., 0.1 to 0.001 μg protease
# T2 construct: purchased Promega Corp., Madison, Wis
# Protocol: as §1, §2, §3
# T1 sequence (P00761 9-231): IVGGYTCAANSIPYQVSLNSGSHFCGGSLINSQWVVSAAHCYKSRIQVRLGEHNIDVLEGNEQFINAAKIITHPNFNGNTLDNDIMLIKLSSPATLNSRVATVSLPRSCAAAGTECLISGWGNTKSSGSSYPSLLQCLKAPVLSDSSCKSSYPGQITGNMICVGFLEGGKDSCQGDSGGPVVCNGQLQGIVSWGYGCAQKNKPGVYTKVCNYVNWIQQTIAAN
# T2 sequence (Q7M135 whole entry): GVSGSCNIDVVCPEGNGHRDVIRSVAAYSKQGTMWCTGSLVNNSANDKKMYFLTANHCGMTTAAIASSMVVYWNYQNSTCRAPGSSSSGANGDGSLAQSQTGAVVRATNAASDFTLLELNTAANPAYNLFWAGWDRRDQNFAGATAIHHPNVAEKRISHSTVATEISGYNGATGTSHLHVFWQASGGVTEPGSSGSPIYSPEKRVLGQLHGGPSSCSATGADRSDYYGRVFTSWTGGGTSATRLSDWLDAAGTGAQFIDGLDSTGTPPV
substance,measurement,setting,value
Promega Peptide 6: Lissamine Rhodamine-tagged peptide *-P-L-S-R-T-L-S-V-A-A-K-K (SEQ ID NO:6) ({Lissamine Rhodamine}-PLSRTLSVAAKK),digestion by Modified Trypsin,[1],fluorescent species with mobilities altered
same,amount of protein kinase C that could be detected,[2],3 ng
same,amount of alkaline phosphatase at which dephosphorylation of the phosphorylated peptide could be seen,[3],60 ng
same,proteolysis by B. albidum supernate,[4],proteolytic cleavage of the peptide had occurred
same,proteolysis by T. aquaticus supernate,[5],proteolytic cleavage of the peptide had occurred
same,digestion by Endoprotease Lys C,[6],fluorescent species with mobilities altered
